Source: patent publication US20160130259A1, “SUBSTITUTED BENZOFURAN COMPOUNDS AND METHODS OF USE THEREOF FOR THE TREATMENT OF VIRAL DISEASES” (priority 2013, published 2016)

Tests used:
HCV replicon genotype 1a = assay: HCV replicon assay, genotype 1a (cell ELISA for NS3/4A); format: cell-based; details: Hepatitis C virus, 96 h, read-out: 1a IC50 (nM)
Experimental: (§1) Measurement of inhibition by compounds was performed using the HCV replicon system. Several different replicons encoding different HCV genotypes or mutations were used. In addition, potency measurements were made using different formats of the replicon assay, including different ways of measurements and different plating formats. See Jan M. Vrolijk et al., A replicons-based bioassay for the measurement of interferons in patients with chronic hepatitis C, 110 J. Virological Methods 201 (2003); Steven S. Carroll et al., Inhibition of Hepatitis C Virus RNA Replication by 2′-Modified Nucleoside Analogs, 278(14) J. Biological Chemistry 11979 (2003). However, the underlying principles are common to all of these determinations, and are outlined below.
(§2) Stable neomycin phosphotransferase encoding replicons-harboring cell lines were used, so all cell lines were maintained under G418 selection prior to the assay. Potency was determined using a cell ELISA assay with an antibody to the replicons encoded NS3/4a protease. See Caterina Trozzi et al., In Vitro Selection and Characterization of Hepatitis C Virus Serine Protease Variants Resistant to an Active-Site Peptide Inhibitor, 77(6) J. Virol. 3669 (2003). To initiate an assay, replicon cells were plated in the presence of a dilution series of test compound in the absence of G418. Typically, the assays were performed in a 96-well plate formate for manual operation, or a 384-well plate format for automated assay. Replicon cells and compound were incubated for 96 hours. At the end of the assay, cells were washed free of media and compound, and the cells were then lysed. RNA was quantified indirectly through detection of replicon-encoded NS3/4A protein levels, through an ELISA-based assay with an antibody specific for NS3/4A. IC50 determinations were calculated as a percentage of a DMSO control by fitting the data to a four-parameter fit function and the data obtained is provided in the table below.
(§3) Data for selected compounds of the present invention was obtained for genotypes 1a and 1b using this method and is provided in the table below: […]

HCV replicon genotype 1b = assay: HCV replicon assay, genotype 1b (cell ELISA for NS3/4A); format: cell-based; details: Hepatitis C virus, 96 h, read-out: 1b IC50 (nM)
Experimental: as §1, §2, §3

CNC(=O)c1c(-c2ccc(F)cc2)oc2cc(N(C)S(C)(=O)=O)c(-c3cc(-c4cc5c(F)cccc5[nH]4)cn(C)c3=O)cc12 [Compound 11, 5-(5-(4-fluoro-1H-indol-2-yl)-1-methyl-2-oxo-1,2-dihydropyridin-3-yl)-2-(4-fluorophenyl)-N-methyl-6-(N-methylmethylsulfonamido)benzofuran-3-carboxamide]
IC50 (HCV replicon genotype 1a): 3.84 nM
IC50 (HCV replicon genotype 1b): 2.67 nM

CNC(=O)c1c(-c2ccc(F)cc2)oc2cc(N(C)S(C)(=O)=O)c(-c3ccc(=O)n(-c4ccc(F)cc4)c3)cc12 [Compound 29, 2-(4-fluorophenyl)-5-(1-(4-fluorophenyl)-6-oxo-1,6-dihydropyridin-3-yl)-N-methyl-6-(N-methylmethylsulfonamido) benzofuran-3-carboxamide]
IC50 (HCV replicon genotype 1a): 110 nM
IC50 (HCV replicon genotype 1b): 31.8 nM

CNC(=O)c1c(-c2ccc(F)cc2)oc2cc(N(C)S(C)(=O)=O)c(-c3cc(-c4cc5c(F)cccc5[nH]4)nn(C)c3=O)cc12 [Compound 19, 5-(6-(4-fluoro-1H-indol-2-yl)-2-methyl-3-oxo-2,3-dihydropyridazin-4-yl)-2-(4-fluorophenyl)-N-methyl-6-(N-methylmethylsulfonamido)benzofuran-3-carboxamide]
IC50 (HCV replicon genotype 1a): 2.48 nM
IC50 (HCV replicon genotype 1b): 3.07 nM

CNC(=O)c1c(-c2ccc(F)cc2)oc2cc(N(C)S(C)(=O)=O)c(-c3cn(C)c(=O)c(-c4cc5c(F)cccc5[nH]4)n3)cc12 [Compound 20, 5-(6-(4-fluoro-1H-indol-2-yl)-4-methyl-5-oxo-4,5-dihydropyrazin-2-yl)-2-(4-fluorophenyl)-N-methyl-6-(N-methylmethylsulfonamido)benzofuran-3-carboxamide]
IC50 (HCV replicon genotype 1a): 2.9 nM
IC50 (HCV replicon genotype 1b): 5.91 nM

CNC(=O)c1c(-c2ccc(F)cc2)oc2ccc(-n3cc(C(=O)NC4(c5ccccc5)CC4)ncc3=O)cc12 [Compound 26, 4-(2-(4-fluorophenyl)-3-(methylcarbamoyl)benzofuran-5-yl)-5-oxo-N-(1-phenylcyclopropyl)-4,5-dihydropyrazine-2-carboxamide]
IC50 (HCV replicon genotype 1a): 129 nM
IC50 (HCV replicon genotype 1b): 29.7 nM

CNC(=O)c1c(-c2ccc(F)cc2)oc2cc(N(C)S(C)(=O)=O)c(-c3cn(C)c(=O)c(-c4cc5c(F)cccc5n4C)n3)cc12 [Compound 21, 5-(6-(4-fluoro-1-methyl-1H-indol-2-yl)-4-methyl-5-oxo-4,5-dihydropyrazin-2-yl)-2-(4-fluorophenyl)-N-methyl-6-(N-methylmethylsulfonamido)benzofuran-3-carboxamide]
IC50 (HCV replicon genotype 1a): 13.7 nM
IC50 (HCV replicon genotype 1b): 5.99 nM

CNC(=O)c1c(-c2ccc(F)cc2)oc2cc(N(C)S(C)(=O)=O)c(-c3cc(-c4nc5ccccc5o4)c(=O)n(C)c3)cc12 [Compound 5, 5-(5-(benzo[d]oxazol-2-yl)-1-methyl-6-oxo-1,6-dihydropyridin-3-yl)-2-(4-fluorophenyl)-N-methyl-6-(N-methylmethylsulfonamido)benzofuran-3-carboxamide]
IC50 (HCV replicon genotype 1a): 5.82 nM
IC50 (HCV replicon genotype 1b): 3.71 nM

CNC(=O)c1c(-c2ccc(F)cc2)oc2cc(N(C)S(C)(=O)=O)c(-c3cc(-c4cc5ncccc5[nH]4)c(=O)n(C)n3)cc12 [Compound 15, 2-(4-fluorophenyl)-N-methyl-5-(1-methyl-6-oxo-5-(1H-pyrrolo[3,2-b]pyridin-2-yl)-1,6-dihydropyridazin-3-yl)-6-(N-methylmethylsulfonamido) benzofuran-3-carboxamide]
IC50 (HCV replicon genotype 1a): 238 nM
IC50 (HCV replicon genotype 1b): 81.1 nM

CNC(=O)c1c(-c2ccc(F)cc2)oc2cc(N(C)S(C)(=O)=O)c(-c3cc(-c4cc5ncccc5o4)c(=O)n(C)c3)cc12 [Compound 9, 2-(4-fluorophenyl)-5-(5-(furo[3,2-b]pyridin-2-yl)-1-methyl-6-oxo-1,6-dihydropyridin-3-yl)-N-methyl-6-(N-methylmethylsulfonamido)benzofuran-3-carboxamide]
IC50 (HCV replicon genotype 1a): 13.4 nM
IC50 (HCV replicon genotype 1b): 4.16 nM

CNC(=O)c1c(-c2ccc(F)cc2)oc2cc(N(C)S(C)(=O)=O)c(-c3cc(-c4cc5c(F)cccc5n4C)c(=O)n(C)n3)cc12 [Compound 16, 5-(5-(4-fluoro-1-methyl-1H-indol-2-yl)-1-methyl-6-oxo-1,6-dihydropyridazin-3-yl)-2-(4-fluorophenyl)-N-methyl-6-(N-methylmethylsulfonamido)benzofuran-3-carboxamide]
IC50 (HCV replicon genotype 1a): 1.38 nM
IC50 (HCV replicon genotype 1b): 1.38 nM

CNC(=O)c1c(-c2ccc(F)cc2)oc2cc(N(C)S(C)(=O)=O)c(-c3cc(-c4cc5c(C#N)cccc5n4CCOC)c(=O)n(C)n3)cc12 [Compound 18, 5-(5-(4-cyano-1-(2-methoxyethyl)-1H-indol-2-yl)-1-methyl-6-oxo-1,6-dihydropyridazin-3-yl)-2-(4-fluorophenyl)-N-methyl-6-(N-methylmethylsulfonamido)benzofuran-3-carboxamide]
IC50 (HCV replicon genotype 1a): 3.15 nM
IC50 (HCV replicon genotype 1b): 5.02 nM

CNC(=O)c1c(-c2ccc(F)cc2)oc2cc(N(C)S(C)(=O)=O)c(-c3cc4n(c(=O)c3)CCn3c-4cc4c(F)cccc43)cc12 [Compound 30, 5-(12-fluoro-4-oxo-6,7-dihydro-4H-pyrido[2′,1′:3,4]pyrazino[1,2-a]indol-2-yl)-2-(4-fluorophenyl)-N-methyl-6-(N-methylmethylsulfonamido)benzofuran-3-carboxamide]
IC50 (HCV replicon genotype 1a): 3.52 nM
IC50 (HCV replicon genotype 1b): 19 nM

CNC(=O)c1c(-c2ccc(F)cc2)oc2cc(N(C)S(C)(=O)=O)c(-c3cc(-c4cc5c(F)cccc5n4C)c(=O)n(C)c3)cc12 [Compound 7, 5-(5-(4-fluoro-1-methyl-1H-indol-2-yl)-1-methyl-6-oxo-1,6-dihydropyridin-3-yl)-2-(4-fluorophenyl)-N-methyl-6-(N-methylmethylsulfonamido)benzofuran-3-carboxamide]
IC50 (HCV replicon genotype 1a): 1.55 nM
IC50 (HCV replicon genotype 1b): 1.1 nM

CNC(=O)c1c(-c2ccc(F)cc2)oc2cc(N(C)S(C)(=O)=O)c(-c3cc(-c4cc5c(C#N)cccc5n4C)c(=O)n(C)n3)cc12 [Compound 17, 5-(5-(4-cyano-1-methyl-1H-indol-2-yl)-1-methyl-6-oxo-1,6-dihydropyridazin-3-yl)-2-(4-fluorophenyl)-N-methyl-6-(N-methylmethylsulfonamido) benzofuran-3-carboxamide]
IC50 (HCV replicon genotype 1a): 2.29 nM
IC50 (HCV replicon genotype 1b): 4.26 nM
